Target: T1, AsCas12a (Acidaminococcus sp. BV3L6, UniProt U2UMQ6)
T1 construct: gene cas12a; purified wild-type protein, no crRNA mentioned in assay
Assay: radiometric TLC ATPase assay ([…] release)
Type: biochemical
Details: 200 µM cold ATP, 200 pM [γ-32P]ATP; 12 mM MgCl2, pH 7.5, 37 °C, 1 h; no DNA; labelled compound

T1 sequence (U2UMQ6 whole entry, looked up): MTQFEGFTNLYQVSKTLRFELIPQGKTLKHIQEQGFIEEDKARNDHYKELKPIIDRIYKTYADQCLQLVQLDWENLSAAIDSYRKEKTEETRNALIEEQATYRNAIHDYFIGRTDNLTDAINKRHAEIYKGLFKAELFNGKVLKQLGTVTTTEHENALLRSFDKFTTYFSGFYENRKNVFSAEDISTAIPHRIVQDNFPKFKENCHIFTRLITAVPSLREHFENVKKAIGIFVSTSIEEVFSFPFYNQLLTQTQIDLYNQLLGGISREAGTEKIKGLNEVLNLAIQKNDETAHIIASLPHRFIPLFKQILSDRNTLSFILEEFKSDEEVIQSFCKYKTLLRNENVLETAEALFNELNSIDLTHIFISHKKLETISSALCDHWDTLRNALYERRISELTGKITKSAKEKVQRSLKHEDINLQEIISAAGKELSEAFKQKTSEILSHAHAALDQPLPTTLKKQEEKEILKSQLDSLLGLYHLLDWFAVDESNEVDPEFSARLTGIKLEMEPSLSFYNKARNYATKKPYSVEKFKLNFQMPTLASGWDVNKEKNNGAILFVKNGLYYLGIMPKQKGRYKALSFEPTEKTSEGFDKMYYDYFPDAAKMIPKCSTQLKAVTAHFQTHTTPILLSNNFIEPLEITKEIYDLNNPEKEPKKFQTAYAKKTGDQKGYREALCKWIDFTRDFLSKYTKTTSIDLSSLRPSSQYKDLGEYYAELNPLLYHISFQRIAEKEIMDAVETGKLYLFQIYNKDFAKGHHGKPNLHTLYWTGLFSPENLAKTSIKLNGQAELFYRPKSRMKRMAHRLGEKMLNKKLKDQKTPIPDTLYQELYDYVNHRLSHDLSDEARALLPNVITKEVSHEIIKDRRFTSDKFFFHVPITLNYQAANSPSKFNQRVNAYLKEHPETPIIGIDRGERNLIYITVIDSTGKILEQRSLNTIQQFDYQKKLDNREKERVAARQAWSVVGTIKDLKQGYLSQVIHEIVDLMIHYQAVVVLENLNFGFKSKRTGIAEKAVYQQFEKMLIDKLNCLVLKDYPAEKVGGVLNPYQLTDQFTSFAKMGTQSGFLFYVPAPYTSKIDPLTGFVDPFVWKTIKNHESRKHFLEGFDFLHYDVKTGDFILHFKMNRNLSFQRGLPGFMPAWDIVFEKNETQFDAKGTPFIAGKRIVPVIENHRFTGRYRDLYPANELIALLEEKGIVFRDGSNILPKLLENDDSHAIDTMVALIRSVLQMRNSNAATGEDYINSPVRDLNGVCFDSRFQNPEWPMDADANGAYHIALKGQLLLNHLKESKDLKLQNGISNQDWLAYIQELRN

With `Nc1ncnc2c1ncn2[C@@H]1O[C@H](COP(=O)(O)OP(=O)(O)OP(=O)(O)O)[C@@H](O)[C@H]1O` [ATP] the “radiometric TLC ATPase assay (32Pi release)” value was “AsCas12a catalyzed ATP hydrolysis in a concentration and time-dependent manner”.

Source: paper doi:10.1101/2025.06.05.658205v3, “AsCas12a Exhibits Intrinsic, DNA-Independent ATPase Activity” (biorxiv, 2025)
